Molecules are shown by their SMILES. A value given as a limit tells only on which side of the number the result lay.

Data set [1] is described as follows: Selectivity index, ratio of CC50 for cytotoxicity against human H1-HeLa cells to EC50 for antiviral activity against Human rhinovirus B14 infected in human H1-HeLa cells. Type of data set: toxicity, cell-based. The conditions noted are these: read-out: Ratio CC50/EC50.
Data set [2] is described as follows: Cytotoxicity against human H1-HeLa cells assessed as reduction in cell viability incubated for 72 hrs. Type of data set: toxicity, cell-based.
A further data set relates to rhinovirus B14. Put plainly: Antiviral activity against Human rhinovirus B14 infected in human H1-HeLa cells incubated for 72 hrs. In kind it is functional, organism-based. The conditions noted are these: Rhinovirus B.
Data set [3] is described as follows: Cytotoxicity against human Calu-3 cells assessed as reduction in cell viability incubated for 48 hrs by MTT assay. Type of data set: toxicity, cell-based. (Tetrazolium dyes change colour on reduction, which living cells bring about.)
The nature of data set [4]: Selectivity index, ratio of CC50 for cytotoxicity against human Calu-3 cells to EC50 for antiviral activity against SARS-CoV-2 Omicron (hCoV-19/Korea/KDCA447321/2021) infected in human Calu-3 cells assessed as reduction in number of spike-protein expressing cells. Type of data set: toxicity, cell-based. The conditions noted are these: read-out: Ratio CC50/EC50.
Data set [5] relates to SARS-CoV-2. Put plainly: Antiviral activity against SARS-CoV-2 Omicron (hCoV-19/Korea/KDCA447321/2021) infected in human Calu-3 cells assessed as reduction in number of spike-protein expressing cells pre-infected for 30 mins followed by compound addition and measured 48 hrs post-infection by DAPI staining based immunofluorescence analysis relative to control. In kind it is functional, organism-based. The following applies: Severe acute respiratory syndrome coronavirus 2, Omicron (hCoV-19/Korea/KDCA447321/2021).

Data set [6] is described as follows: Cytotoxicity against HEK293T cells assessed as reduction in cell viability measured after 48 hrs by MTT assay. Type of data set: toxicity, cell-based, HEK-293T. The following applies: human.
Data set [7] has as its system SARS-CoV-2. The data set is described as follows: Antiviral activity against SARS-CoV-2 Wuhan-like (hCoV-19/Korea/KCDC06/2020) infected in human Calu-3 cells assessed as reduction in number of spike-protein expressing cells pre-infected for 30 mins followed by compound addition and measured 48 hrs post-infection by DAPI staining based immunofluorescence analysis relative to control. In kind it is functional, organism-based. The following applies: Severe acute respiratory syndrome coronavirus 2, Wuhan-like (hCoV-19/Korea/KCDC06/2020).

Data set [8] deals with Middle East respiratory syndrome-related coronavirus. The data set is described as follows: Antiviral activity against MERS-CoV KOR/KNIH/002_05_2015 infected in human Huh-7 cells assessed as inhibition of virus-induced cytopathic effect measured 2 to 7 days post infection by MTT-based cell viability assay. Type of data set: functional, organism-based. The conditions noted are these: KOR/KNIH/002_05_2015, Huh-7.

Data set [9] in a line: Selectivity index, ratio of CC50 for cytotoxicity against human Calu-3 cells to EC50 for antiviral activity against SARS-CoV-2 Wuhan-like (hCoV-19/Korea/KCDC06/2020) infected in human Calu-3 cells assessed as reduction in number of spike-protein expressing cells. In kind it is toxicity, cell-based. The conditions noted are these: read-out: Ratio CC50/EC50.
Data set [10] is described as follows: Selectivity index, ratio of CC50 for cytotoxicity against African green monkey Vero cells to EC50 for antiviral activity against SARS-CoV-2 infected in african green monkey Vero cells assessed as reduction in number of spike-protein expressing cells. Type of data set: toxicity, cell-based. The following applies: read-out: Ratio CC50/EC50.
Another data set has as its system Human coronavirus NL63. The data set is described as follows: Antiviral activity against HCoV-NL63 infected in LLC-MK2 cells assessed as inhibition of virus-induced cytopathic effect measured 2 to 7 days post infection by MTT-based cell viability assay. In kind it is functional, organism-based. In general terms: Damage to the host cells serves as the signal in cytopathic effect assays.

The nature of data set [11]: Selectivity index, ratio of CC50 for cytotoxicity against rhesus monkey LLC-MK2 cells to EC50 for antiviral activity against HCoV-NL63 infected in rhesus monkey LLC-MK2 cells assessed as inhibition of virus-induced cytopathic effect. In kind it is toxicity, cell-based. The conditions noted are these: read-out: Ratio CC50/EC50.
Data set [12] in a line: Selectivity index, ratio of CC50 for cytotoxicity against human Huh-7 cells to EC50 for antiviral activity against MERS-CoV KOR/KNIH/002_05_2015 infected in human Huh-7 cells assessed as inhibition of virus-induced cytopathic effect. In kind it is toxicity, cell-based. The following applies: read-out: Ratio CC50/EC50.
The test system of data set [13] is SARS-CoV-2. Put plainly: Antiviral activity against SARS-CoV-2 infected in african green monkey Vero cells assessed as reduction in number of spike-protein expressing cells pre-infected for 30 mins followed by compound addition and measured 48 hrs post-infection by DAPI staining based immunofluorescence analysis. Type of data set: functional, organism-based. The following applies: Severe acute respiratory syndrome coronavirus 2, Vero.

For a further data set, the system named is Zaire ebolavirus. Put plainly: Antiviral activity against Zaire Ebola virus infected in HEK293T cells transfected with viral replication protein and Renilla luciferase pre-infected for 4 hrs followed by compound addition and measured after 48 hrs by Dual-luciferase reporter assay. In kind it is functional, organism-based. The following applies: HEK-293T. For orientation: Reporter assays use an easily measured gene product as a stand-in for the process of interest.

The nature of data set [14]: Selectivity index, ratio of CC50 for cytotoxicity against human Calu-3 cells to EC50 for antiviral activity against SARS-CoV-2 Gamma (hCoV-19/Korea95637/KDCA/2021) infected in human Calu-3 cells assessed as reduction in number of spike-protein expressing cells. In kind it is toxicity, cell-based. The conditions noted are these: read-out: Ratio CC50/EC50.
The nature of data set [15]: Selectivity index, ratio of CC50 for cytotoxicity against HEK293T cells to EC50 for antiviral activity against Zaire Ebola virus infected in HEK293T cells transfected with viral replication protein and Renilla luciferase. In kind it is toxicity, cell-based. The conditions noted are these: human, read-out: Ratio CC50/EC50.
Data set [16] deals with SARS-CoV-2. Put plainly: Antiviral activity against SARS-CoV-2 Delta (hCoV-19/Korea/KDCA119861/2021) infected in human Calu-3 cells assessed as reduction in number of spike-protein expressing cells pre-infected for 30 mins followed by compound addition and measured 48 hrs post-infection by DAPI staining based immunofluorescence analysis relative to control. Type of data set: functional, organism-based. The conditions noted are these: Severe acute respiratory syndrome coronavirus 2, Delta (hCoV-19/Korea/KDCA119861/2021).

Data set [17] can be described thus: Cytotoxicity against rhesus monkey LLC-MK2 cells assessed as reduction in cell viability by MTT-based cell viability assay. Type of data set: toxicity, Macaca mulatta.
The nature of data set [18]: Cytotoxicity against African green monkey Vero cells assessed as reduction in cell viability incubated for 48 hrs by MTT assay. The following applies: chlorocebus sabaeus. Type of data set: toxicity, cell-based.
In data set [19] the test system is SARS-CoV-2. Put plainly: Antiviral activity against SARS-CoV-2 Gamma (hCoV-19/Korea95637/KDCA/2021) infected in human Calu-3 cells assessed as reduction in number of spike-protein expressing cells pre-infected for 30 mins followed by compound addition and measured 48 hrs post-infection by DAPI staining based immunofluorescence analysis relative to control. In kind it is functional, organism-based. The following applies: Severe acute respiratory syndrome coronavirus 2, Gamma (hCoV-19/Korea95637/KDCA/2021).

Data set [20] can be described thus: Selectivity index, ratio of CC50 for cytotoxicity against human Calu-3 cells to EC50 for antiviral activity against SARS-CoV-2 Delta (hCoV-19/Korea/KDCA119861/2021) infected in human Calu-3 cells assessed as reduction in number of spike-protein expressing cells. Type of data set: toxicity, cell-based. The conditions noted are these: read-out: Ratio CC50/EC50.

Data set [21] in a line: Cytotoxicity against human Huh-7 cells assessed as reduction in cell viability by MTT-based cell viability assay. Type of data set: toxicity.

For `CCOC(=O)/C=C/[C@H](C[C@@H]1CCNC1=O)NC(=O)[C@@H](CC(=O)[C@@H](NC(=O)c1cc(C)on1)C(C)C)Cc1ccc(F)cc1`, in data set [1], the selectivity ratio is above 176. In data set [2], the cytotoxic concentration (CC50) at 72 h is above 100000 nM. Besides, in the data set with rhinovirus B14, the EC50 was determined as 570 nM.
In the case of `CCC(CC)COC(=O)[C@H](C)N[P@](=O)(OC[C@H]1O[C@@](C#N)(c2ccc3c(N)ncnn23)[C@H](O)[C@@H]1O)Oc1ccccc1`, the half-maximal cytotoxic concentration (CC50) at 48 h in data set [3] is above 100000 nM; in data set [6], 2620 nM; in [18], above 100000 nM. Moreover, the selectivity ratio is above 24.7 in [4]; above 174 in [9]; above 20.7 in [10]; above 702 in [11]; above 348 in data set [12]; above 73.1 in data set [14]. Moreover, the selectivity ratio is 14.2 in data set [15] and above 41.6 in data set [20]. In addition, the EC50 is 984 nM in the data set with SARS-CoV-2 [5]; 570 nM in the data set on SARS-CoV-2 [7]; below 42 nM in [8]; 140 nM in the data set on Human coronavirus NL63; 4830 nM in the data set with SARS-CoV-2 [13]; 180 nM in the data set with Zaire ebolavirus. For the same molecule, the EC50 in the data set with SARS-CoV-2 [16] was 2400 nM; with SARS-CoV-2 [19], 1370 nM. For the same molecule, the CC50 was above 100000 nM in data set [17] and 19600 nM in data set [21].

The CC50 is the concentration giving 50% cytotoxicity. Broadly, the EC50 is the concentration at which the effect is half-maximal.

The record behind these values is ChEMBL document CHEMBL6182943, “Identification of 4'-Thiouridine as an Orally Available Antiviral Agent Targeting Both RdRp and NiRAN Functions of SARS-CoV-2 Nsp12” (J Med Chem, 2025).
